What was measured:
Type in all cases: cell-based
E. coli ESS = experiment: Antibacterial in vitro activity (MIC), E. coli ESS; conditions: Escherichia coli
E. coli JT4 = experiment: Antibacterial in vitro activity (MIC), E. coli JT4; conditions: Escherichia coli
E. coli JT425 = experiment: Antibacterial in vitro activity (MIC), E. coli JT425; conditions: Escherichia coli
E. coli NCTC 10418 = experiment: Antibacterial in vitro activity (MIC), E. coli NCTC 10418; conditions: Escherichia coli, NCTC10418
[1] = system: Ps. aeruginosa NCTC 10662; experiment: Antibacterial in vitro activity (MIC), Ps. aeruginosa NCTC 10662; conditions: Pseudomonas aeruginosa
Ps. aeruginosa Dalgleish = experiment: Antibacterial in vitro activity (MIC), Ps. aeruginosa Dalgleish; conditions: Pseudomonas aeruginosa; Ps. aeruginosa Dalgleish 10^-2
S. marcesens US32 = experiment: Antibacterial in vitro activity (MIC), S. marcesens US32
K. aerogenes A = experiment: Antibacterial in vitro activity (MIC), K. aerogenes A; conditions: Klebsiella aerogenes
E. cloacae N1 = experiment: Antibacterial in vitro activity (MIC), E. cloacae N1; conditions: Enterobacter cloacae
P. mirabilis C977 = experiment: Antibacterial in vitro activity (MIC), P. mirabilis C977; conditions: Proteus mirabilis
P. rettgeri = experiment: Antibacterial in vitro activity (MIC), P. rettgeri; conditions: Providencia rettgeri
N. catarrhalis 1502 = experiment: Antibacterial in vitro activity (MIC), N. catarrhalis 1502
S. pyogenes CN10 = experiment: Antibacterial in vitro activity (MIC), S. pyogenes CN10; conditions: Streptococcus pyogenes

Q: Which MIC (E. coli ESS) does the source give for `CCN1CCN(C(=O)N[C@@H](C(=O)N[C@@H]2C(=O)N3[C@@H](C(=O)O)CS[C@H]23)c2ccc(O)c(O)c2)C(=O)C1=O` [Example 3, Sodium 6,β[D-2-(4-ethyl-2,3-dioxopiperazine-1-carbonylamino)-2-(3,4-dihydroxyphenyl)]acetamidobisnorpenicillanate] here?
A: 20 µg/mL

Q: What about the MIC (E. coli JT4) of the same molecule?
A: 1000 µg/mL

Q: What about the MIC (E. coli JT425) of the same molecule?
A: 50 µg/mL

Q: What about the MIC (E. coli NCTC 10418) of the same molecule?
A: 20 µg/mL

Q: And the MIC ([1]; NCTC10662, Ps. aeruginosa NCTC 10662)?
A: 1000 µg/mL

Q: And the MIC ([1]; NCTC10662, Ps. aeruginosa NCTC 10662 10^-2)?
A: 100 µg/mL

Q: And the MIC (Ps. aeruginosa Dalgleish)?
A: 2500 µg/mL

Q: And the MIC (S. marcesens US32)?
A: 200 µg/mL

Q: And the MIC (K. aerogenes A)?
A: 50 µg/mL

Q: What about the MIC (E. cloacae N1) of the same molecule?
A: 500 µg/mL

Q: What about the MIC (P. mirabilis C977) of the same molecule?
A: 100 µg/mL

Q: And the MIC (P. rettgeri)?
A: 200 µg/mL

Q: And the MIC (N. catarrhalis 1502)?
A: 20 µg/mL

Q: And the MIC (S. pyogenes CN10)?
A: 500 µg/mL
